Experimental data taken from ChEMBL document CHEMBL1201862, “PubChem BioAssay data set” (2004).
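Following 48 hours of exposure in 96-well plates, responses at five concentrations were used to interpolate endpoints linearly. The concentration for 50% growth inhibition is given as GI50.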 Active and inactive are the calls of the source. Rule as the data show it: active = GI50 up to about 1.1 µM and inactive = higher.

Assays:
Assay in all cases: inhibition of tumour cell growth, NCI panel, 48 h
A498 = tested on: A498
DU-145 = tested on: DU-145
HCT-15 = tested on: HCT-15
HOP-62 = tested on: HOP-62
M14 = tested on: M14
MDA-MB-231 = tested on: MDA-MB-231
NCI-H460 = tested on: NCI-H460
OVCAR-3 = tested on: OVCAR-3
PC-3 = tested on: PC-3
RPMI-8226 = tested on: RPMI-8226
SF-268 = tested on: SF-268
SK-MEL-2 = tested on: SK-MEL-2
SK-MEL-5 = tested on: SK-MEL-5
SN12C = tested on: SN12C
SNB-19 = tested on: SNB-19
U-251 = tested on: U-251
UACC-62 = tested on: UACC-62
UO-31 = tested on: UO-31
CAKI-1 = tested on: CAKI-1
KM12 = tested on: KM12

Structure (SMILES): COc1ccc(/C=C2\N=C(SC)N(C)C2=O)cc1
- GI50 (A498): 37.8 µM (inactive)
- GI50 (DU-145): > 100 µM (inactive)
- GI50 (HCT-15): 64.3 µM
- GI50 (HOP-62): 96.8 µM (inactive)
- GI50 (M14): 82.6 µM (inactive)
- GI50 (MDA-MB-231): 41.2 µM (inactive)
- GI50 (NCI-H460): 99.1 µM (inactive)
- GI50 (OVCAR-3): 46.1 µM (inactive)
- GI50 (PC-3): 40.9 µM (inactive)
- GI50 (RPMI-8226): 50 µM (inactive)
- GI50 (SF-268): 28.1 µM (inactive)
- GI50 (SK-MEL-2): > 100 µM (inactive)
- GI50 (SK-MEL-5): 42.3 µM (inactive)
- GI50 (SN12C): 71.6 µM (inactive)
- GI50 (SNB-19): > 100 µM (inactive)
- GI50 (U-251): 89.7 µM (inactive)
- GI50 (UACC-62): 70.3 µM (inactive)
- GI50 (UO-31): 27 µM (inactive)

Structure (SMILES): COC1=CC23CCCN2CCc2cc4c(cc2C3C1O)OCO4 (stereo not given)
- GI50 (A498): 59.3 µM (inactive)
- GI50 (CAKI-1): 31.4 µM (inactive)
- GI50 (DU-145): 43 µM (inactive)
- GI50 (HCT-15): 41.8 µM
- GI50 (KM12): 47 µM (inactive)
- GI50 (M14): > 100 µM (inactive)
- GI50 (MDA-MB-231): > 100 µM (inactive)
- GI50 (NCI-H460): 36 µM (inactive)
- GI50 (PC-3): 59.3 µM (inactive)
- GI50 (SF-268): 50.2 µM (inactive)
- GI50 (SK-MEL-2): 54.2 µM (inactive)
- GI50 (SK-MEL-5): 20 µM (inactive)
- GI50 (SN12C): 57.5 µM (inactive)
- GI50 (SNB-19): 20.3 µM (inactive)
- GI50 (U-251): > 100 µM (inactive)
- GI50 (UACC-62): > 100 µM (inactive)
- GI50 (UO-31): 48 µM (inactive)

Structure (SMILES): CCN(CC)CCCn1c(=O)c2ccccc2n2c3c(=O)n(C)c(=O)n(C)c3nc12
- GI50 (CAKI-1): 1.43 µM (inactive)
- GI50 (DU-145): 1.57 µM (inactive)
- GI50 (HCT-15): 5.83 µM
- GI50 (HOP-62): 2.77 µM (inactive)
- GI50 (KM12): 4.63 µM (inactive)
- GI50 (M14): 12.3 µM (inactive)
- GI50 (MDA-MB-231): 13.8 µM (inactive)
- GI50 (NCI-H460): 0.355 µM (active)
- GI50 (OVCAR-3): 14.4 µM (inactive)
- GI50 (PC-3): 8.39 µM (inactive)
- GI50 (RPMI-8226): 4.66 µM (inactive)
- GI50 (SF-268): 5.9 µM (inactive)
- GI50 (SK-MEL-2): 18.3 µM (inactive)
- GI50 (SK-MEL-5): 2.22 µM (inactive)
- GI50 (SN12C): 2.85 µM (inactive)
- GI50 (SNB-19): 4.88 µM (inactive)
- GI50 (U-251): 3.03 µM (inactive)
- GI50 (UACC-62): 4.3 µM (inactive)
- GI50 (UO-31): 4.47 µM (inactive)

Structure (SMILES): COc1cc2c(OC)c(c1)CCCC1=CC(=O)C=C(CCC2)C1=O
- GI50 (A498): > 100 µM (inactive)
- GI50 (CAKI-1): > 100 µM (inactive)
- GI50 (DU-145): > 68.4 µM (inactive)
- GI50 (HCT-15): 33.6 µM
- GI50 (HOP-62): 78.7 µM (inactive)
- GI50 (KM12): 21.9 µM (inactive)
- GI50 (M14): 26.7 µM (inactive)
- GI50 (MDA-MB-231): 25.5 µM (inactive)
- GI50 (NCI-H460): 41.9 µM (inactive)
- GI50 (OVCAR-3): 22.6 µM (inactive)
- GI50 (PC-3): 28.6 µM (inactive)
- GI50 (RPMI-8226): 7.6 µM (inactive)
- GI50 (SF-268): 37.8 µM (inactive)
- GI50 (SK-MEL-5): 30.3 µM (inactive)
- GI50 (SN12C): 20.8 µM (inactive)
- GI50 (SNB-19): 29.4 µM (inactive)
- GI50 (U-251): 40.1 µM (inactive)
- GI50 (UACC-62): 31.8 µM (inactive)
- GI50 (UO-31): 43.9 µM (inactive)

Structure (SMILES): COc1cc(OCc2ccc3nc(OC)c(OC)nc3c2)cc(OC)c1OC
- GI50 (A498): > 10 µM (inactive)
- GI50 (CAKI-1): > 10 µM (inactive)
- GI50 (DU-145): > 10 µM (inactive)
- GI50 (HCT-15): > 10 µM
- GI50 (HOP-62): > 10 µM (inactive)
- GI50 (KM12): > 10 µM (inactive)
- GI50 (M14): > 10 µM (inactive)
- GI50 (MDA-MB-231): > 10 µM (inactive)
- GI50 (NCI-H460): > 10 µM (inactive)
- GI50 (OVCAR-3): > 10 µM (inactive)
- GI50 (PC-3): > 3.08 µM (inactive)
- GI50 (RPMI-8226): > 10 µM (inactive)
- GI50 (SF-268): > 10 µM (inactive)
- GI50 (SK-MEL-5): > 10 µM (inactive)
- GI50 (SN12C): > 10 µM (inactive)
- GI50 (SNB-19): > 10 µM (inactive)
- GI50 (U-251): > 10 µM (inactive)
- GI50 (UACC-62): > 10 µM (inactive)
- GI50 (UO-31): > 10 µM (inactive)

Structure (SMILES): CCOc1snc(C(Cl)(Cl)Cl)c1Cl
- GI50 (A498): 11.7 µM (inactive)
- GI50 (CAKI-1): 12.3 µM (inactive)
- GI50 (DU-145): 16.6 µM (inactive)
- GI50 (HCT-15): 24.2 µM
- GI50 (HOP-62): 27.4 µM (inactive)
- GI50 (KM12): 19.8 µM (inactive)
- GI50 (M14): 29 µM (inactive)
- GI50 (MDA-MB-231): 22.4 µM (inactive)
- GI50 (NCI-H460): 26.9 µM (inactive)
- GI50 (OVCAR-3): 14.1 µM (inactive)
- GI50 (PC-3): 28.4 µM (inactive)
- GI50 (RPMI-8226): 15.5 µM (inactive)
- GI50 (SF-268): 17.7 µM (inactive)
- GI50 (SK-MEL-5): 7.83 µM (inactive)
- GI50 (SN12C): 23.8 µM (inactive)
- GI50 (SNB-19): 6.75 µM (inactive)
- GI50 (U-251): 27.7 µM (inactive)
- GI50 (UACC-62): 19.4 µM (inactive)
- GI50 (UO-31): 5.58 µM (inactive)

Structure (SMILES): CC(CO)(CO)N1C(=O)C2C3c4ccccc4C(c4ccccc43)C2C1=O (stereo not given)
- GI50 (A498): 64 µM (inactive)
- GI50 (CAKI-1): > 100 µM (inactive)
- GI50 (DU-145): 50.4 µM (inactive)
- GI50 (HCT-15): > 100 µM
- GI50 (HOP-62): > 100 µM (inactive)
- GI50 (KM12): > 100 µM (inactive)
- GI50 (M14): > 100 µM (inactive)
- GI50 (MDA-MB-231): 45.8 µM (inactive)
- GI50 (NCI-H460): > 100 µM (inactive)
- GI50 (OVCAR-3): > 100 µM (inactive)
- GI50 (PC-3): > 100 µM (inactive)
- GI50 (SF-268): > 100 µM (inactive)
- GI50 (SK-MEL-2): > 100 µM (inactive)
- GI50 (SK-MEL-5): > 100 µM (inactive)
- GI50 (SN12C): > 100 µM (inactive)
- GI50 (SNB-19): > 100 µM (inactive)
- GI50 (U-251): > 100 µM (inactive)
- GI50 (UACC-62): > 100 µM (inactive)
- GI50 (UO-31): 65.2 µM (inactive)

Structure (SMILES): OCCN=C1c2ccccc2C2C(c3ccccc31)C1c3ccccc3C(=NCCO)c3ccccc3C21 (stereo not given)
- GI50 (CAKI-1): 16.3 µM (inactive)
- GI50 (DU-145): 21.7 µM (inactive)
- GI50 (HCT-15): 17.4 µM
- GI50 (HOP-62): 18.1 µM (inactive)
- GI50 (KM12): 17.1 µM (inactive)
- GI50 (M14): 20.1 µM (inactive)
- GI50 (MDA-MB-231): 13.8 µM (inactive)
- GI50 (NCI-H460): 26.9 µM (inactive)
- GI50 (OVCAR-3): 18.2 µM (inactive)
- GI50 (PC-3): 17.2 µM (inactive)
- GI50 (RPMI-8226): 13.6 µM (inactive)
- GI50 (SF-268): 23.2 µM (inactive)
- GI50 (SK-MEL-2): 16.4 µM (inactive)
- GI50 (SK-MEL-5): 16.8 µM (inactive)
- GI50 (SN12C): 18.6 µM (inactive)
- GI50 (SNB-19): 10.7 µM (inactive)
- GI50 (U-251): 20.2 µM (inactive)
- GI50 (UACC-62): 15.3 µM (inactive)
- GI50 (UO-31): 12.5 µM (inactive)

Structure (SMILES): COc1cc(CNc2nc3ccccc3nc2C(=O)O)cc(OC)c1OC
- GI50 (A498): > 100 µM (inactive)
- GI50 (CAKI-1): > 100 µM (inactive)
- GI50 (DU-145): > 100 µM (inactive)
- GI50 (HCT-15): > 100 µM
- GI50 (HOP-62): > 100 µM (inactive)
- GI50 (KM12): > 100 µM (inactive)
- GI50 (MDA-MB-231): > 100 µM (inactive)
- GI50 (NCI-H460): 94 µM (inactive)
- GI50 (OVCAR-3): > 100 µM (inactive)
- GI50 (PC-3): > 100 µM (inactive)
- GI50 (RPMI-8226): > 100 µM (inactive)
- GI50 (SF-268): > 100 µM (inactive)
- GI50 (SK-MEL-5): 98.4 µM (inactive)
- GI50 (SN12C): 83 µM (inactive)
- GI50 (U-251): > 100 µM (inactive)
- GI50 (UACC-62): 74 µM (inactive)
- GI50 (UO-31): 49.2 µM (inactive)

Structure (SMILES): Cn1c(-c2ccc(/N=N/Nc3ccc(-c4n[nH]c(=S)n4C)cc3)cc2)n[nH]c1=S
- GI50 (A498): 24.9 µM (inactive)
- GI50 (DU-145): 12.8 µM (inactive)
- GI50 (HCT-15): > 100 µM
- GI50 (HOP-62): 20.3 µM (inactive)
- GI50 (M14): 8.89 µM (inactive)
- GI50 (MDA-MB-231): 18.8 µM (inactive)
- GI50 (OVCAR-3): 33.3 µM (inactive)
- GI50 (PC-3): > 100 µM (inactive)
- GI50 (RPMI-8226): 2.79 µM (inactive)
- GI50 (SF-268): 16.5 µM (inactive)
- GI50 (SK-MEL-2): 5.7 µM (inactive)
- GI50 (SK-MEL-5): 3.01 µM (inactive)
- GI50 (SN12C): > 100 µM (inactive)
- GI50 (SNB-19): 17.7 µM (inactive)
- GI50 (U-251): 13.2 µM (inactive)
- GI50 (UO-31): 2.85 µM (inactive)

Structure (SMILES): N=C(N)NCCCC(NC(=O)c1cccc2c(=O)c3ccccc3[nH]c12)C(=O)O (stereo not given)
- GI50 (A498): > 100 µM (inactive)
- GI50 (DU-145): > 100 µM (inactive)
- GI50 (HCT-15): > 100 µM
- GI50 (HOP-62): > 100 µM (inactive)
- GI50 (KM12): > 100 µM (inactive)
- GI50 (M14): > 100 µM (inactive)
- GI50 (MDA-MB-231): > 100 µM (inactive)
- GI50 (OVCAR-3): > 100 µM (inactive)
- GI50 (PC-3): > 100 µM (inactive)
- GI50 (RPMI-8226): > 100 µM (inactive)
- GI50 (SF-268): > 100 µM (inactive)
- GI50 (SK-MEL-2): > 100 µM (inactive)
- GI50 (SK-MEL-5): > 100 µM (inactive)
- GI50 (SN12C): > 100 µM (inactive)
- GI50 (SNB-19): > 100 µM (inactive)
- GI50 (U-251): > 100 µM (inactive)
- GI50 (UACC-62): > 100 µM (inactive)
- GI50 (UO-31): > 100 µM (inactive)
